Assay results as given in the NIST ThermoML archive (doi:10.1021/je049671t).

Assay: xn = mol fraction of the nth substance listed
Details: Liquid, Vibrating tube method

CC(C)C [2-methylpropane] + CCCC
Details	mass density [kg/m3]
300 K, 5514.6 kPa, x2 = 0.25	564.1
300 K, 5950.5 kPa, x2 = 0.75	574.92
300 K, 5960.3 kPa, x2 = 0.5	570.04
300 K, 6036.6 kPa, x2 = 0.25	565.05
300 K, 6473.1 kPa, x2 = 0.75	575.78
300 K, 6498 kPa, x2 = 0.25	565.9
300 K, 6511.5 kPa, x2 = 0.5	571.01
300 K, 7001.6 kPa, x2 = 0.25	566.76
300 K, 7003.6 kPa, x2 = 0.5	571.85
300 K, 7005.5 kPa, x2 = 0.75	576.66
320 K, 978.9 kPa, x2 = 0.5	535.28
320 K, 1008.4 kPa, x2 = 0.75	541.4
320 K, 1010.3 kPa, x2 = 0.25	529.04
320 K, 1496.2 kPa, x2 = 0.25	530.4
320 K, 1506.1 kPa, x2 = 0.75	542.64
320 K, 1594.1 kPa, x2 = 0.5	536.89
320 K, 2006 kPa, x2 = 0.75	543.82
320 K, 2007.9 kPa, x2 = 0.5	537.95
320 K, 2013.6 kPa, x2 = 0.25	531.82
320 K, 2503.8 kPa, x2 = 0.75	545.03
320 K, 2511 kPa, x2 = 0.25	533.15
320 K, 2513.8 kPa, x2 = 0.5	539.22
320 K, 2989.3 kPa, x2 = 0.25	534.4
320 K, 2990.8 kPa, x2 = 0.75	546.14
320 K, 3020.8 kPa, x2 = 0.5	540.47
320 K, 3465.4 kPa, x2 = 0.5	541.53
320 K, 3504.2 kPa, x2 = 0.25	535.74
320 K, 3510.6 kPa, x2 = 0.75	547.3
320 K, 3972.8 kPa, x2 = 0.5	542.72
320 K, 3986.7 kPa, x2 = 0.75	548.41
320 K, 4006.4 kPa, x2 = 0.25	537
320 K, 4485.3 kPa, x2 = 0.25	538.17
320 K, 4492.1 kPa, x2 = 0.5	543.94
320 K, 4515.1 kPa, x2 = 0.75	549.56
320 K, 4992.4 kPa, x2 = 0.5	545.07
320 K, 4997.8 kPa, x2 = 0.75	550.6
320 K, 4998.1 kPa, x2 = 0.25	539.39
320 K, 5465.3 kPa, x2 = 0.5	546.12
320 K, 5506.3 kPa, x2 = 0.25	540.6
320 K, 5508.2 kPa, x2 = 0.75	551.69
320 K, 5970.9 kPa, x2 = 0.25	541.67
320 K, 5971.8 kPa, x2 = 0.5	547.22
320 K, 6015.9 kPa, x2 = 0.75	552.74
320 K, 6462.7 kPa, x2 = 0.5	548.28
320 K, 6488.4 kPa, x2 = 0.75	553.71
320 K, 6514.9 kPa, x2 = 0.25	542.91
320 K, 7034.9 kPa, x2 = 0.25	544.07
320 K, 7065.7 kPa, x2 = 0.75	554.85
320 K, 7093.8 kPa, x2 = 0.5	549.62
340 K, 998.6 kPa, x2 = 0.5	506.59
340 K, 1008.5 kPa, x2 = 0.75	513.55
340 K, 1505.9 kPa, x2 = 0.75	515.25
340 K, 1510 kPa, x2 = 0.25	501.39
340 K, 1561.3 kPa, x2 = 0.5	508.67
340 K, 2003.4 kPa, x2 = 0.25	503.24
340 K, 2008.5 kPa, x2 = 0.5	510.27
340 K, 2020.5 kPa, x2 = 0.75	516.97
340 K, 2495.8 kPa, x2 = 0.25	505.08
340 K, 2500.9 kPa, x2 = 0.75	518.54
340 K, 2527.9 kPa, x2 = 0.5	512.06
340 K, 3001.4 kPa, x2 = 0.5	513.65
340 K, 3005.7 kPa, x2 = 0.75	520.07
340 K, 3009.8 kPa, x2 = 0.25	506.91
340 K, 3499.6 kPa, x2 = 0.75	521.61
340 K, 3512.9 kPa, x2 = 0.25	508.67
340 K, 3521.9 kPa, x2 = 0.5	515.35
340 K, 4004.8 kPa, x2 = 0.25	510.31
340 K, 4004.8 kPa, x2 = 0.75	523.11
340 K, 4042.3 kPa, x2 = 0.5	516.97
340 K, 4496.4 kPa, x2 = 0.75	524.53
340 K, 4508.6 kPa, x2 = 0.25	511.95
340 K, 4526.2 kPa, x2 = 0.5	518.46
340 K, 4981.3 kPa, x2 = 0.25	513.47
340 K, 4988.5 kPa, x2 = 0.5	519.84
340 K, 4990.6 kPa, x2 = 0.75	525.87
340 K, 5500.3 kPa, x2 = 0.25	515.08
340 K, 5502 kPa, x2 = 0.5	521.34
340 K, 5515.9 kPa, x2 = 0.75	527.37
340 K, 5973.6 kPa, x2 = 0.75	528.61
340 K, 5999.1 kPa, x2 = 0.25	516.58
340 K, 6016.6 kPa, x2 = 0.5	522.8
340 K, 6476.8 kPa, x2 = 0.5	524.07
340 K, 6496.3 kPa, x2 = 0.75	529.99
340 K, 6508.8 kPa, x2 = 0.25	518.07
340 K, 7019.3 kPa, x2 = 0.75	531.33
340 K, 7019.9 kPa, x2 = 0.25	519.55
340 K, 7084.7 kPa, x2 = 0.5	525.72
360 K, 1517.1 kPa, x2 = 0.75	483.05
360 K, 1517.3 kPa, x2 = 0.5	475.07
360 K, 1523.6 kPa, x2 = 0.25	466.34
360 K, 1975.7 kPa, x2 = 0.25	469.15
360 K, 1976.3 kPa, x2 = 0.75	485.36
360 K, 2018.5 kPa, x2 = 0.5	477.84
360 K, 2482.6 kPa, x2 = 0.25	472.1
360 K, 2496 kPa, x2 = 0.75	487.85
360 K, 2525 kPa, x2 = 0.5	480.5
360 K, 2961.3 kPa, x2 = 0.75	489.97
360 K, 3005.9 kPa, x2 = 0.5	482.91
360 K, 3010.1 kPa, x2 = 0.25	474.99
360 K, 3489.3 kPa, x2 = 0.75	492.24
360 K, 3507.7 kPa, x2 = 0.25	477.58
360 K, 3511.2 kPa, x2 = 0.5	485.28
360 K, 3977.2 kPa, x2 = 0.75	494.26
360 K, 4007.3 kPa, x2 = 0.25	480.03
360 K, 4019.1 kPa, x2 = 0.5	487.57
360 K, 4443.6 kPa, x2 = 0.75	496.16
360 K, 4493 kPa, x2 = 0.25	482.35
360 K, 4510.2 kPa, x2 = 0.5	489.71
360 K, 4948.8 kPa, x2 = 0.75	498.12
360 K, 5010.2 kPa, x2 = 0.25	484.66
360 K, 5018.9 kPa, x2 = 0.5	491.8
360 K, 5499.8 kPa, x2 = 0.75	500.18
360 K, 5503.6 kPa, x2 = 0.25	486.78
360 K, 5508.6 kPa, x2 = 0.5	493.77
360 K, 5964.2 kPa, x2 = 0.75	501.91
360 K, 6002.5 kPa, x2 = 0.25	488.86
360 K, 6019.4 kPa, x2 = 0.5	495.75
360 K, 6484.4 kPa, x2 = 0.75	503.73
360 K, 6497.2 kPa, x2 = 0.25	490.83
360 K, 6511.4 kPa, x2 = 0.5	497.56
360 K, 7022.1 kPa, x2 = 0.5	499.47
360 K, 7041 kPa, x2 = 0.25	492.93
360 K, 7073.3 kPa, x2 = 0.75	505.68
380 K, 1992.3 kPa, x2 = 0.75	445.43
380 K, 2496.5 kPa, x2 = 0.25	428.54
380 K, 2506.6 kPa, x2 = 0.5	440.41
380 K, 2519.3 kPa, x2 = 0.75	449.94
380 K, 3005 kPa, x2 = 0.5	444.82
380 K, 3007.8 kPa, x2 = 0.25	433.95
380 K, 3014.5 kPa, x2 = 0.75	453.77
380 K, 3482.8 kPa, x2 = 0.75	457.09
380 K, 3498.2 kPa, x2 = 0.25	438.53
380 K, 3519 kPa, x2 = 0.5	448.92
380 K, 4000 kPa, x2 = 0.25	442.76
380 K, 4015.3 kPa, x2 = 0.5	452.56
380 K, 4022 kPa, x2 = 0.75	460.64
380 K, 4463.2 kPa, x2 = 0.25	446.33
380 K, 4476.8 kPa, x2 = 0.75	463.44
380 K, 4521.7 kPa, x2 = 0.5	456
380 K, 4994 kPa, x2 = 0.75	466.44
380 K, 5001.3 kPa, x2 = 0.5	459.04
380 K, 5004.6 kPa, x2 = 0.25	450.19
380 K, 5481.2 kPa, x2 = 0.25	453.35
380 K, 5504.5 kPa, x2 = 0.75	469.24
380 K, 5511.6 kPa, x2 = 0.5	462.08
380 K, 5986.7 kPa, x2 = 0.25	456.5
380 K, 5998.4 kPa, x2 = 0.75	471.8
380 K, 6010.6 kPa, x2 = 0.5	464.88
380 K, 6475.4 kPa, x2 = 0.75	474.16
380 K, 6476.8 kPa, x2 = 0.25	459.36
380 K, 6505.2 kPa, x2 = 0.5	467.52
380 K, 6967.5 kPa, x2 = 0.75	476.48
380 K, 6981.4 kPa, x2 = 0.5	469.94
380 K, 7003.2 kPa, x2 = 0.25	462.28

mass density [kg/m3]
Details	300 K	320 K	340 K	360 K	380 K
x2 = 0.25	553.87	527.89	499.35	–	424.73
x2 = 0.5	559.44	534.14	506.18	474.18	435.21
x2 = 0.75	564.78	540.17	512.91	481.73	445.14
